system: human hepatoma Huh-7 cell line harboring a HCV replicon; test: HCV replicon assay (inhibition of viral replication, luciferase readout); type: cell-based; settings: Hepatitis C virus, 72 h, Huh-7 HCV replicon cells, 3 days incubation
How it was run: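 Huh-7 replicon cells were exposed to 10-point 3-fold compound dilutions (0.44% DMSO) for 3 days at 37 °C. Replicon replication was read by Dual-Glo luciferase, with background from protease-inhibitor wells subtracted, and viability by calcein AM. EC50/CC50 came from a Hill-equation fit versus DMSO controls.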

SMILES | inhibition at 2 µM [%]
CC1CCC(C(=O)N(c2cc(C#CC(C)(C)COC3CCCCO3)sc2C(=O)O)C2CCC(Oc3ccccn3)CC2)CC1 (stereo not drawn) [Compound 311, 5-[3,3-Dimethyl-4-(tetrahydro-pyran-2-yloxy)-but-1-ynyl]-3-{(4-methyl-cyclohexanecarbonyl)-[4-(pyridin-2-yloxy)-cyclohexyl]-amino}-thiophene-2-carboxylic acid] | 95.2
CC(C)(C#Cc1cc(N(C(=O)[C@H]2CC[C@H](C)CC2)[C@H]2CC[C@H](OC3CCOC3)CC2)c(C(=O)O)s1)CCO (stereo partly drawn) [Compound 314, 5-(5-Hydroxy-3,3-dimethyl-pent-1-ynyl)-3-{(4-methyl-cyclohexanecarbonyl)-[4-(tetrahydro-furan-3-yloxy)-cyclohexyl]-amino}-thiophene-2-carboxylic acid] | 99.9
CC(C)(C)C#Cc1cc(N(C(=O)[C@H]2CC[C@H](C)CC2)[C@H]2CC[C@H](O[C@H]3COC[C@H]3O)CC2)c(C(=O)O)s1 [Compound 317, 5-(3,3-dimethyl-but-1-ynyl)-3-[[4-(4-cis-hydroxy-tetrahydro-furan-3-yloxy)-cyclohexyl]-(4-methyl-cyclohexanecarbonyl)-amino]-thiophene-2-carboxylic acid] | 100
CC(C)(C)C#Cc1cc(N(C(=O)[C@H]2CC[C@H](C)CC2)[C@H]2CC[C@H](O[C@H]3COC[C@@H]3O)CC2)c(C(=O)O)s1 [Compound 318, 5-(3,3-Dimethyl-but-1-ynyl)-3-[[4-(4-trans-hydroxy-tetrahydro-furan-3-yloxy)-cyclohexyl]-(4-methyl-cyclohexanecarbonyl)-amino]-thiophene-2-carboxylic acid] | 99.7
CC1CCC(C(=O)N(c2cc(C#CC(C)(C)C)sc2C(=O)O)[C@H]2CCN(CCOc3ccccn3)C2)CC1 (stereo partly drawn) [Compound 321] | 99.9
CC(C)(C)C#Cc1cc(N(C(=O)[C@H]2CC[C@H](C)CC2)[C@H]2CC[C@H](O[C@@H]3CCOC3)CC2)c(C(=O)O)s1 [Compound 322] | 100
C=C1CCC(C(=O)N(c2cc(C#CC(C)(C)C)sc2C(=O)O)[C@H]2CC[C@H](Oc3cc(CN(C)C)ccn3)CC2)CC1 [Compound 325, 3-[[4-(4-dimethylaminomethyl-pyridin-2-yloxy)-cyclohexyl]-(4-methylene-cyclohexanecarbonyl)-amino]-5-(3,3-dimethyl-but-1-ynyl)-thiophene-2-carboxylic acid] | 100
CC(C)(C)C#Cc1cc(N(C(=O)[C@H]2CC[C@H](C)CC2)[C@H]2CC[C@H](Oc3nccc(=O)[nH]3)CC2)c(C(=O)O)s1 [Compound 326, 5-(3,3-Dimethyl-but-1-ynyl)-3-{(4-methyl-cyclohexanecarbonyl)-[4-(6-oxo-1,6-dihydro-pyrimidin-2-yloxy)-cyclohexyl]-amino}-thiophene-2-carboxylic acid] | 99.9
CC(C)(C)C#Cc1cc(N(C(=O)[C@H]2CC[C@H](C)CC2)[C@H]2CC[C@H](O[C@H]3CCOC3)CC2)c(C(=O)O)s1 [Compound 331, 5-(3,3-Dimethyl-but-1-ynyl)-3-{(trans-4-methyl-cyclohexanecarbonyl)-[4-(tetrahydro-furan-3(S)-yloxy)-trans-cyclohexyl]-amino}-thiophene-2-carboxylic acid] | 100
CC(C)(C)C#Cc1cc(N(C(=O)[C@H]2CC[C@H](C)CC2)[C@H]2CC[C@@H](O[C@H]3CCOC3)CC2)c(C(=O)O)s1 [Compound 332, 5-(3,3-Dimethyl-but-1-ynyl)-3-{(trans-4-methyl-cyclohexanecarbonyl)-[4-(tetrahydro-furan-3(S)-yloxy)-cis-cyclohexyl]-amino}-thiophene-2-carboxylic acid] | 99.9
CC1=CC[C@@H](C(=O)N(c2cc(C#CC(C)(C)C)sc2C(=O)O)[C@H]2CC[C@H](O[C@H]3CCOC3)CC2)CC1 [Compound 333] | 100
CC1=CC[C@@H](C(=O)N(c2cc(C#CC(C)(C)C)sc2C(=O)O)[C@H]2CC[C@H](OC3CCOC3)CC2)CC1 (stereo partly drawn) [Compound 334] | 99.9

From US8569302B2, “Inhibitors of flaviviridae viruses” (Gilead Sciences, Inc., priority 2009, dated 2013)
